The supplement of paper PMC11061612

Assays:
Selumetinib = compound: Cn1cnc2c(F)c(Nc3ccc(Br)cc3Cl)c(C(=O)NOCCO)cc21 [Selumetinib]; conditions: max 10 µM
Outline: (§1)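 Cancer cell lines were plated in 1536-well plates in 7.5 μl of DMEM/F12 or RPMI with 10% FBS and kept 24 hours at 37°C and 5% CO2 before 72 hours of dosing, with final DMSO typically 0.2%. CellTiter-Glo 2.0 luminescence measured viability, scaled between blank-well and DMSO-well means. Dose responses were fitted to a two-parameter logistic curve with a non-linear mixed effects model. This fit gives the single-agent IC50.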

MK-2206 = compound: NC1(c2ccc(-c3nc4ccn5c(=O)[nH]nc5c4cc3-c3ccccc3)cc2)CCC1 [MK-2206]; conditions: max 10 µM
Outline: as §1

AZD6738 = compound: C[C@@H]1COCCN1C2=NC(=NC(=C2)C3(CC3)[S@](=N)(=O)C)C4=C5C=CNC5=NC=C4 [AZD6738]; conditions: max 10 µM
Outline: as §1

5-Fluorouracil = compound: O=c1[nH]cc(F)c(=O)[nH]1 [5-Fluorouracil]; conditions: max 20 µM
Outline: as §1

Savolitinib = compound: C[C@@H](c1ccc2nccn2c1)n1nnc2ncc(-c3cnn(C)c3)nc21 [Savolitinib]; conditions: max 1 µM
Outline: as §1

AZD5153 = compound: COc1nnc2ccc(N3CCC(c4ccc(OCCN5CCN(C)C(=O)[C@H]5C)cc4)CC3)nn12 [AZD5153]; conditions: max 1 µM
Outline: as §1

SRA737 = compound: N#Cc1cnc(Nc2cc(NC[C@H]3CNCCO3)c(C(F)(F)F)cn2)cn1 [SRA737]; conditions: max 10 µM
Outline: as §1

AZD5991 = compound: Cc1c2c(nn1C)CSCc1cc(n(C)n1)CSc1cc(c3ccccc3c1)OCCCc1c(C(=O)O)n(C)c3c-2c(Cl)ccc13 [AZD5991]; conditions: max 1 µM
Outline: as §1

Gemcitabine = compound: Nc1ccn([C@@H]2O[C@H](CO)[C@@H](O)C2(F)F)c(=O)n1 [Gemcitabine]; conditions: max 0.3 µM
Outline: as §1

Crizotinib = compound: C[C@@H](Oc1cc(-c2cnn(C3CCNCC3)c2)cnc1N)c1c(Cl)ccc(F)c1Cl [Crizotinib]; conditions: max 10 µM
Outline: as §1

AZD4320 = compound: CN(CC[C@H](CSC1=CC=CC=C1)NC2=C(C=C(C=C2)S(=O)(=O)NC(=O)C3=CC=C(C=C3)N4CCC(CC4)[C@H](C5=CC=CC=C5C6=CC=C(C=C6)Cl)O)S(=O)(=O)C(F)(F)F)CCO [AZD4320]; conditions: max 1 µM
Outline: as §1

Trametinib = compound: CC(=O)Nc1cccc(-n2c(=O)n(C3CC3)c(=O)c3c(Nc4ccc(I)cc4F)n(C)c(=O)c(C)c32)c1 [Trametinib]; conditions: max 1 µM
Outline: as §1

AZD7648 = compound: Cc1cc2ncnn2cc1Nc1ncc2c(n1)n(C1CCOCC1)c(=O)n2C [AZD7648]; conditions: max 10 µM
Outline: as §1

Alisertib = compound: COc1cc(Nc2ncc3c(n2)-c2ccc(Cl)cc2C(c2c(F)cccc2OC)=NC3)ccc1C(=O)O [Alisertib]; conditions: max 10 µM
Outline: as §1

Etoposide = compound: COc1cc([C@@H]2c3cc4c(cc3[C@@H](O[C@@H]3O[C@@H]5CO[C@@H](C)O[C@H]5[C@H](O)[C@H]3O)[C@H]3COC(=O)[C@H]23)OCO4)cc(OC)c1O [Etoposide]; conditions: max 10 µM
Outline: as §1

Venetoclax = compound: CC1(C)CCC(CN2CCN(c3ccc(C(=O)NS(=O)(=O)c4ccc(NCC5CCOCC5)c([N+](=O)[O-])c4)c(Oc4cnc5[nH]ccc5c4)c3)CC2)=C(c2ccc(Cl)cc2)C1 [Venetoclax]; conditions: max 1 µM
Outline: as §1

AZD8186 = compound: C[C@@H](Nc1cc(F)cc(F)c1)c1cc(C(=O)N(C)C)cc2c(=O)cc(N3CCOCC3)oc12 [AZD8186]; conditions: max 10 µM
Outline: as §1

Dasatinib = compound: CC1=C(C(=CC=C1)Cl)NC(=O)C2=CN=C(S2)NC3=CC(=NC(=N3)C)N4CCN(CC4)CCO [Dasatinib]; conditions: max 2 µM
Outline: as §1

AZD1390 = compound: CC(C)n1c(=O)n(C)c2cnc3cc(F)c(-c4ccc(OCCCN5CCCCC5)nc4)cc3c21 [AZD1390]; conditions: max 0.3 µM
Outline: as §1

SG3199 = compound: CC1=CN2[C@@H](C1)C=NC3=CC(=C(C=C3C2=O)OC)OCCCCCOC4=C(C=C5C(=C4)N=C[C@@H]6CC(=CN6C5=O)C)OC [SG3199]; conditions: max 0.001 µM
Outline: as §1

SN-38 = compound: CCc1c2c(nc3ccc(O)cc13)-c1cc3c(c(=O)n1C2)COC(=O)[C@]3(O)CC [SN-38]; conditions: max 0.3 µM
Outline: as §1

AZD1775 = compound: C=CCn1c(=O)c2cnc(Nc3ccc(N4CCN(C)CC4)cc3)nc2n1-c1cccc(C(C)(C)O)n1 [AZD1775]; conditions: max 3 µM
Outline: as §1

Prexasertib = compound: COc1cccc(OCCCN)c1-c1cc(Nc2cnc(C#N)cn2)n[nH]1 [Prexasertib]; conditions: max 1 µM
Outline: as §1

Olaparib = compound: O=C(c1cc(Cc2n[nH]c(=O)c3ccccc23)ccc1F)N1CCN(C(=O)C2CC2)CC1 [Olaparib]; conditions: max 10 µM
Outline: as §1

Doxorubicin = compound: COc1cccc2c1C(=O)c1c(O)c3c(c(O)c1C2=O)C[C@@](O)(C(=O)CO)C[C@@H]3O[C@H]1C[C@H](N)[C@H](O)[C@H](C)O1 [Doxorubicin]; conditions: max 1 µM
Outline: as §1

[1] = compound: O=C(Nc1ccc2[nH]nc(-c3ccncc3)c2c1)[C@@H]1CCN(CC(=O)N2CCN(c3ccc(-c4ncccn4)cc3)CC2)C1; conditions: max 5 µM
Outline: as §1

Gefitinib = compound: COc1cc2ncnc(Nc3ccc(F)c(Cl)c3)c2cc1OCCCN1CCOCC1 [Gefitinib]; conditions: max 10 µM
Outline: as §1

AZD5363 = compound: C1CN(CCC1(C(=O)N[C@@H](CCO)C2=CC=C(C=C2)Cl)N)C3=NC=NC4=C3C=CN4 [AZD5363]; conditions: max 10 µM
Outline: as §1

AZD0156 = compound: CN(C)CCCOc1ccc(-c2ccc3ncc4c(c3c2)n(C2CCOCC2)c(=O)n4C)cn1 [AZD0156]; conditions: max 3 µM
Outline: as §1

Taselisib = compound: Cc1nc(-c2cn3c(n2)-c2ccc(-c4cnn(C(C)(C)C(N)=O)c4)cc2OCC3)n(C(C)C)n1 [Taselisib]; conditions: max 10 µM
Outline: as §1

Carboplatin = compound: C1CC(C1)(C(=O)[O-])C(=O)[O-].N.N.[Pt+2] [Carboplatin]; conditions: max 10 µM
Outline: as §1

AZD2811 = compound: CCN(CCO)CCCOc1ccc2c(Nc3cc(CC(=O)Nc4cccc(F)c4)[nH]n3)ncnc2c1 [AZD2811]; conditions: max 1 µM
Outline: as §1

Paclitaxel = compound: CC(=O)O[C@H]1C(=O)[C@@]2(C)[C@H]([C@H](OC(=O)c3ccccc3)[C@]3(O)C[C@H](OC(=O)[C@H](O)[C@@H](NC(=O)c4ccccc4)c4ccccc4)C(C)=C1C3(C)C)[C@]1(OC(C)=O)CO[C@@H]1C[C@@H]2O [Paclitaxel]; conditions: max 3 µM
Outline: as §1

Palbociclib = compound: CC(=O)c1c(C)c2cnc(Nc3ccc(N4CCNCC4)cn3)nc2n(C2CCCC2)c1=O [Palbociclib]; conditions: max 10 µM
Outline: as §1

Lapatinib = compound: CS(=O)(=O)CCNCc1ccc(-c2ccc3ncnc(Nc4ccc(OCc5cccc(F)c5)c(Cl)c4)c3c2)o1 [Lapatinib]; conditions: max 10 µM
Outline: as §1

| Cell Line | IC50, cell viability 72 h (Selumetinib) | IC50, cell viability 72 h (MK-2206) | IC50, cell viability 72 h (AZD6738) | IC50, cell viability 72 h (5-Fluorouracil) | IC50, cell viability 72 h (Savolitinib) | IC50, cell viability 72 h (AZD5153) | IC50, cell viability 72 h (SRA737) | IC50, cell viability 72 h (AZD5991) | IC50, cell viability 72 h (Gemcitabine) | IC50, cell viability 72 h (Crizotinib) | IC50, cell viability 72 h (AZD4320) | IC50, cell viability 72 h (Trametinib) | IC50, cell viability 72 h (AZD7648) | IC50, cell viability 72 h (Alisertib) | IC50, cell viability 72 h (Etoposide) | IC50, cell viability 72 h (Venetoclax) | IC50, cell viability 72 h (AZD8186) | IC50, cell viability 72 h (Dasatinib) | IC50, cell viability 72 h (AZD1390) | IC50, cell viability 72 h (SG3199) | IC50, cell viability 72 h (SN-38) | IC50, cell viability 72 h (AZD1775) | IC50, cell viability 72 h (Prexasertib) | IC50, cell viability 72 h (Olaparib) | IC50, cell viability 72 h (Doxorubicin) | IC50, cell viability 72 h [1] | IC50, cell viability 72 h (Gefitinib) | IC50, cell viability 72 h (AZD5363) | IC50, cell viability 72 h (AZD0156) | IC50, cell viability 72 h (Taselisib) | IC50, cell viability 72 h (Carboplatin) | IC50, cell viability 72 h (AZD2811) | IC50, cell viability 72 h (Paclitaxel) | IC50, cell viability 72 h (Palbociclib) | IC50, cell viability 72 h (Lapatinib) |
| --- | --- | --- | --- | --- | --- | --- | --- | --- | --- | --- | --- | --- | --- | --- | --- | --- | --- | --- | --- | --- | --- | --- | --- | --- | --- | --- | --- | --- | --- | --- | --- | --- | --- | --- | --- |
| NCI-H1703 (Squamous Cell Lung Carcinoma) | > 10000 nM | 2830 nM | 917 nM | > 20000 nM | > 1000 nM | 400 nM | 1170 nM | 393 nM | 4.23 nM | 8010 nM | > 1000 nM | > 1000 nM | > 10000 nM | 6210 nM | 1640 nM | > 1000 nM | 4060 nM | 47.8 nM | > 300 nM | > 1 nM | 36.7 nM | 222 nM | 8.59 nM | > 10000 nM | 142 nM | > 5000 nM | > 10000 nM | 6660 nM | > 3000 nM | 625 nM | > 10000 nM | > 1000 nM | 5.86 nM | 9730 nM | > 10000 nM |
| NCI-H2087 (Lung Adenocarcinoma) | 6120 nM | > 10000 nM | > 10000 nM | > 20000 nM | > 1000 nM | > 1000 nM | > 10000 nM | > 1000 nM | 255 nM | > 10000 nM | > 1000 nM | 350 nM | > 10000 nM | > 10000 nM | > 10000 nM | > 1000 nM | > 10000 nM | > 2000 nM | > 300 nM | > 1 nM | 18.8 nM | > 3000 nM | 96.2 nM | > 10000 nM | > 1000 nM | 2200 nM | > 10000 nM | > 10000 nM | > 3000 nM | > 10000 nM | > 10000 nM | > 1000 nM | 225 nM | > 10000 nM | > 10000 nM |
